Results on 16 compounds are retold here after US9862717B2 (Merck Patent GmbH, priority 2014, dated 2018).

For one assay, the target named is T1, CDK8/CycC (Homo sapiens, UniProt P49336).
T1 construct: purchased Invitrogen PV4402
T1 sequence (P49336 whole entry): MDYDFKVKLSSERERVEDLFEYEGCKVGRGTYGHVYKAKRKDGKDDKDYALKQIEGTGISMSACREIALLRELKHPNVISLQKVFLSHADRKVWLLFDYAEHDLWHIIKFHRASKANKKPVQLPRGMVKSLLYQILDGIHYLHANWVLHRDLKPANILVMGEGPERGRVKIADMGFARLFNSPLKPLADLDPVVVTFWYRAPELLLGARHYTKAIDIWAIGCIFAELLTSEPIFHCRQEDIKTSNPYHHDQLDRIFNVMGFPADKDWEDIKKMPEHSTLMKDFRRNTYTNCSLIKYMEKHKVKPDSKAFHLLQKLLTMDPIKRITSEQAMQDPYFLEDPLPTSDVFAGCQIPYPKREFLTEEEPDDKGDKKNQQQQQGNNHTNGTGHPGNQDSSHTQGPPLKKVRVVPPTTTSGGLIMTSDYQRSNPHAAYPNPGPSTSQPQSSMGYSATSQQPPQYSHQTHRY
T1 sequence (P24863 whole entry partner): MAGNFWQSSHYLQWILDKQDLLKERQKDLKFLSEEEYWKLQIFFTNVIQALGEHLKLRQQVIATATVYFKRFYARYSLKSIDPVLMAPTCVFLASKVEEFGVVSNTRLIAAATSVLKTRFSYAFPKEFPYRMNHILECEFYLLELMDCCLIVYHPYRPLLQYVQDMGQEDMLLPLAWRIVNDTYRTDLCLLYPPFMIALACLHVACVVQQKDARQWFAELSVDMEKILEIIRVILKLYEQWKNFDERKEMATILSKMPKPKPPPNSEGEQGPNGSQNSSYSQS
The experiment in a line: FRET based Lanthascreen binding competition assay for CDK8 inhibitory activity. Conditions: CDK8 co-expressed with CycC; class symbols; read-out: IC50. The source says:
Biochemical Assay for CDK8 Inhibitory Activity FRET based Lanthascreen binding competition assay: A dye-labeled ATP competitive probe served as a FRET acceptor upon binding to CDK8 labeled with a strepavidin -Eu-chelate (via a biotinylated anti His antibody). The result was a fluorescence signal at 647 nm. In case this probe was competed by an inhibitor, such a signal cannot be generated any more. The CDK8 used for this assay was a protein co-expressed with CycC. The assay procedure for an assay in a 1536 well plate was performed according to the following: 2 μL CDK8/biotin-anti-His Ab/SA-Eu mix in Assay buffer were pipetted into the wells of a micro plate. 1 μL compound in 20 mM Hepes buffer/5% DMSO was added. The plate was shaken for 30 sec and incubated for 20 min at RT. 2 μL Alexa647-probe in assay buffer were added. The plate was shaken for 30 sec again and incubated for 60 min at RT in the dark. Then the plate was read out on a Perkin Elmer Envision (mode LANCE/TRF, excitation 340 nm emission 650 nm). […] The readouts were fitted to IC50 curves using Genedata Condoseo.
On to `O=C(c1cnc2[nH]nc(C(F)(F)F)c2c1)N1CCC[C@@H]1c1ccc(Cl)cc1` (stereo in doubt) [compound 181, [(R)-2-(4-Chloro-phenyl)-pyrrolidin-1-yl]-(3-trifluoromethyl-1H-pyrazolo[3,4-b]pyridin-5-yl)-methanone], for which the IC50 fell in the range of 0.1 to 1 µM.

As for `Cc1n[nH]c2ncc(C(=O)N3CCC(O)(c4ccccc4)C3)cc12` (stereo in doubt) [compound 199, ((R)-3-Hydroxy-3-phenyl-pyrrolidin-1-yl)-(3-methyl-1H-pyrazolo[3,4-b]pyridin-5-yl)-methanone], the IC50 was 1 to 10 µM.

For `Cc1n[nH]c2ncc(C(=O)N3CCCC3c3ccc(Br)cc3)cc12` (stereo not shown) [compound 1, [2-(4-Bromo-phenyl)-pyrrolidin-1-yl]-(3-methyl-1H-pyrazolo[3,4-b]pyridin-5-yl)-methanone], the IC50 was less than 0.01 µM.

`Cc1n[nH]c2ncc(C(=O)N3CCC[C@H]3c3ccc(Br)cc3)cc12` [compound 2, [(S)-2-(4-Bromo-phenyl)-pyrrolidin-1-yl]-(3-methyl-1H-pyrazolo[3,4-b]pyridin-5-yl)-methanone]: the IC50 is less than 0.01 µM.

As for `Cc1n[nH]c2ncc(C(=O)N3CCC[C@@H]3c3ccc(Br)cc3)cc12` [compound 3, [(R)-2-(4-Bromo-phenyl)-pyrrolidin-1-yl]-(3-methyl-1H-pyrazolo[3,4-b]pyridin-5-yl)-methanone], the IC50 is 0.1 to 1 µM.

`CCCc1n[nH]c2ccc(C(=O)N3CCC[C@H]3c3ccc(Br)cc3)cc12` [compound 5, [(S)-2-(4-Bromo-phenyl)-pyrrolidin-1-yl]-(3-propyl-1H-indazol-5-yl)-methanone]: the IC50 is less than 0.01 µM.

For `CCCc1n[nH]c2ccc(C(=O)N3CCC[C@@H]3c3ccc(Br)cc3)cc12` [compound 6, [(R)-2-(4-bromo-phenyl)-pyrrolidin-1-yl]-(3-propyl-1H-indazol-5-yl)-methanone], the half-inhibitory concentration (IC50) lay within 0.1 to 1 µM.

For the compound `CCCc1n[nH]c2ccc(C(=O)N3CCCC3c3ccc(Cl)cc3)cc12` (stereo not shown) [compound 9, [2-(4-Chloro-phenyl)-pyrrolidin-1-yl]-(3-propyl-1H-indazol-5-yl)-methanone], the IC50 is less than 0.01 µM.

With `CCCc1n[nH]c2ccc(C(=O)N3CCC[C@H]3c3ccc(Cl)cc3)cc12` [compound 11, [(S)-2-(4-Chloro-phenyl)-pyrrolidin-1-yl]-(3-propyl-1H-indazol-5-yl)-methanone], the IC50 was less than 0.01 µM.

For `CCCc1n[nH]c2ccc(C(=O)N3CCC[C@@H]3c3ccc(Cl)cc3)cc12` [compound 12, [(R)-2-(4-Chloro-phenyl)-pyrrolidin-1-yl]-(3-propyl-1H-indazol-5-yl)-methanone], the IC50 lay within 0.1 to 1 µM.

Take `Cc1n[nH]c2ncc(C(=O)N3CCCCC3c3ccc(F)cc3)cc12` (stereo not shown) [compound 15, [2-(4-Fluoro-phenyl)-piperidin-1-yl]-(3-methyl-1H-pyrazolo[3,4-b]pyridin-5-yl)-methanone]: the IC50 fell in the range of 0.01 to 0.1 µM.

For the compound `Cc1n[nH]c2ncc(C(=O)N3CCCC[C@H]3c3ccc(F)cc3)cc12` [compound 17, [(S)-2-(4-Fluoro-phenyl)-piperidin-1-yl]-(3-methyl-1H-pyrazolo[3,4-b]pyridin-5-yl)-methanone], the IC50 lay in the range of 0.01 to 0.1 µM.

Regarding `Cc1n[nH]c2ncc(C(=O)N3CCCCC3c3ccccc3)cc12` (stereo not shown) [compound 18, (3-Methyl-1H-pyrazolo[3,4-b]pyridin-5-yl)-(2-phenyl-piperidin-1-yl)-methanone], the IC50 was in the range of 0.01 to 0.1 µM.

As to `Cc1n[nH]c2ncc(C(=O)N3CCCCC3Cc3ccccc3)cc12` (stereo not shown) [compound 19, (2-Benzyl-piperidin-1-yl)-(3-methyl-1H-pyrazolo[3,4-b]pyridin-5-yl)-methanone], the IC50 was 0.1 to 1 µM.

The assay is the same for the next values; noted with them: IC50 [μM], CDK8 co-expressed with CycC; class symbols.
`Cc1n[nH]c2ncc(C(=O)N3CCC[C@H]3c3ccc(Cl)cc3)cc12` [compound 13] registered an IC50 of less than 0.01 µM.

The compound `Cc1n[nH]c2ncc(C(=O)N3CCC[C@@H]3c3ccc(Cl)cc3)cc12` [compound 14, [(R)-2-(4-Chloro-phenyl)-pyrrolidin-1-yl]-(3-methyl-1H-pyrazolo[3,4-b]pyridin-5-yl)-methanone] registered an IC50 of 0.1 to 1 µM.
